Data taken from ChEMBL document CHEMBL1833915, “Discovery of potent, orally bioavailable phthalazinone bradykinin B1 receptor antagonists” (J Med Chem, 2011).
Activity calls are given as the source filed them. No cut-off for these calls is given here.

What was measured:
[1] = molecular target: T1, B1 bradykinin receptor (Homo sapiens, UniProt P46663); experiment: Antagonist activity at human B1 receptor; assay type: functional
T1 sequence (P46663 whole entry): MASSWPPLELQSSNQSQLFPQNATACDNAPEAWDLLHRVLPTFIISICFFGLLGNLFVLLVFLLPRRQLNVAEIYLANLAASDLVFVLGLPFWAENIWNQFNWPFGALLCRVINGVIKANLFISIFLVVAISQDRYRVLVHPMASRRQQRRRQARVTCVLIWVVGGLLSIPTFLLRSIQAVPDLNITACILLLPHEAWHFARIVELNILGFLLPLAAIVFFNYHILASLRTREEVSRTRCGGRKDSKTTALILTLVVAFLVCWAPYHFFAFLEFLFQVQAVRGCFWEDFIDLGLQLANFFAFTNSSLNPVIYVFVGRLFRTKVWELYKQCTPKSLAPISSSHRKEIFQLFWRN

[2] = Half life in Sprague-Dawley rat at 2 mg/kg, iv; assay type: ADME, organism-based; parameters: dose 2 mg/kg, route intravenous; details: in vivo
[3] = Clearance in Sprague-Dawley rat at 2 mg/kg, iv; assay type: ADME, organism-based; parameters: dose 2 mg/kg, route intravenous; details: in vivo
[4] = Volume of distribution at steady state in Sprague-Dawley rat at 2 mg/kg, iv; assay type: ADME, organism-based; parameters: dose 2 mg/kg, route intravenous; details: in vivo, read-out: Vdss
[5] = Oral bioavailability in Sprague-Dawley rat at 5 mg/kg; assay type: ADME, organism-based; details: in vivo
[6] = molecular target: T2, B1 bradykinin receptor (Oryctolagus cuniculus, UniProt P48748); experiment: Inhibition of rabbit B1 receptor by cellular calcium flux assay; assay type: functional
T2 sequence (P48748 whole entry): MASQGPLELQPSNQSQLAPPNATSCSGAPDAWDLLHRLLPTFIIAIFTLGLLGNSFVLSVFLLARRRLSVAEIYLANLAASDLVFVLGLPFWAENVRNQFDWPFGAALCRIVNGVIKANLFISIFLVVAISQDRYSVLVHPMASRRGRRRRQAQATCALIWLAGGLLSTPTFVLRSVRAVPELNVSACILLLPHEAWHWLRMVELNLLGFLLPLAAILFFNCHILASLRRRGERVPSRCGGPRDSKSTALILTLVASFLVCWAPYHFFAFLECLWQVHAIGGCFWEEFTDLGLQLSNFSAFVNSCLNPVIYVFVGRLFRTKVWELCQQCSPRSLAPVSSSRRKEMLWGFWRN

[7] = Oral bioavailability in Sprague-Dawley rat; assay type: ADME, organism-based; details: in vivo
[8] = Clearance in Sprague-Dawley rat; assay type: ADME, organism-based; details: in vivo
[9] = molecular target: Voltage-gated inwardly rectifying potassium channel KCNH2 (Homo sapiens, UniProt Q12809); experiment: Inhibition of human hERG at 1 uM
[10] = molecular target: Potassium voltage-gated channel subfamily A member 5 (Homo sapiens) (UniProt P22460); experiment: Activity at Kv1.5 ion channel at 1 uM
[11] = molecular target: Sodium channel protein type 5 subunit alpha (Homo sapiens, UniProt Q14524); experiment: Activity at Nav1.5 ion channel at 1 uM
[12] = molecular target: T1, B1 bradykinin receptor; experiment: Antagonist activity at human B1 receptor expressed in CHO cells by aequorin-based calcium flux assay; assay type: functional, cell-based
[13] = Half life in dog at 1 mg/kg, iv; assay type: ADME, organism-based, Canis lupus familiaris; parameters: dose 1 mg/kg, route intravenous; details: in vivo
[14] = Clearance in dog at 1 mg/kg, iv; assay type: ADME, organism-based, Canis lupus familiaris; parameters: dose 1 mg/kg, route intravenous; details: in vivo
[15] = Volume of distribution at steady state in dog at 1 mg/kg, iv; assay type: ADME, organism-based, Canis lupus familiaris; parameters: dose 1 mg/kg, route intravenous; details: in vivo, read-out: Vdss
[16] = Oral bioavailability in dog at 1 mg/kg; assay type: ADME, organism-based, Canis lupus familiaris; details: in vivo
[17] = Fraction unbound in rabbit plasma; assay type: ADME, cell-free, Oryctolagus cuniculus
[18] = system: Oryctolagus cuniculus; experiment: Antihypertensive activity in sc dosed rabbit assessed as reduction in DAK-induced hypotension
[19] = system: Oryctolagus cuniculus; experiment: […] activity in LPS treated rabbit assessed as reversal of DAK-induced hypotension at 0.03 to 3 mg/kg, sc; assay type: functional, organism-based
[20] = system: Oryctolagus cuniculus; experiment: […] activity in LPS treated rabbit assessed as reversal of DAK-induced hypotension at 0.003 to 1 mg/kg, sc; assay type: functional, organism-based
[21] = molecular target: T1, B1 bradykinin receptor; experiment: Antagonist activity at human B1 receptor by cell-based assay; assay type: functional

Chain of Sodium channel protein type 5 subunit alpha (Q14524 whole entry): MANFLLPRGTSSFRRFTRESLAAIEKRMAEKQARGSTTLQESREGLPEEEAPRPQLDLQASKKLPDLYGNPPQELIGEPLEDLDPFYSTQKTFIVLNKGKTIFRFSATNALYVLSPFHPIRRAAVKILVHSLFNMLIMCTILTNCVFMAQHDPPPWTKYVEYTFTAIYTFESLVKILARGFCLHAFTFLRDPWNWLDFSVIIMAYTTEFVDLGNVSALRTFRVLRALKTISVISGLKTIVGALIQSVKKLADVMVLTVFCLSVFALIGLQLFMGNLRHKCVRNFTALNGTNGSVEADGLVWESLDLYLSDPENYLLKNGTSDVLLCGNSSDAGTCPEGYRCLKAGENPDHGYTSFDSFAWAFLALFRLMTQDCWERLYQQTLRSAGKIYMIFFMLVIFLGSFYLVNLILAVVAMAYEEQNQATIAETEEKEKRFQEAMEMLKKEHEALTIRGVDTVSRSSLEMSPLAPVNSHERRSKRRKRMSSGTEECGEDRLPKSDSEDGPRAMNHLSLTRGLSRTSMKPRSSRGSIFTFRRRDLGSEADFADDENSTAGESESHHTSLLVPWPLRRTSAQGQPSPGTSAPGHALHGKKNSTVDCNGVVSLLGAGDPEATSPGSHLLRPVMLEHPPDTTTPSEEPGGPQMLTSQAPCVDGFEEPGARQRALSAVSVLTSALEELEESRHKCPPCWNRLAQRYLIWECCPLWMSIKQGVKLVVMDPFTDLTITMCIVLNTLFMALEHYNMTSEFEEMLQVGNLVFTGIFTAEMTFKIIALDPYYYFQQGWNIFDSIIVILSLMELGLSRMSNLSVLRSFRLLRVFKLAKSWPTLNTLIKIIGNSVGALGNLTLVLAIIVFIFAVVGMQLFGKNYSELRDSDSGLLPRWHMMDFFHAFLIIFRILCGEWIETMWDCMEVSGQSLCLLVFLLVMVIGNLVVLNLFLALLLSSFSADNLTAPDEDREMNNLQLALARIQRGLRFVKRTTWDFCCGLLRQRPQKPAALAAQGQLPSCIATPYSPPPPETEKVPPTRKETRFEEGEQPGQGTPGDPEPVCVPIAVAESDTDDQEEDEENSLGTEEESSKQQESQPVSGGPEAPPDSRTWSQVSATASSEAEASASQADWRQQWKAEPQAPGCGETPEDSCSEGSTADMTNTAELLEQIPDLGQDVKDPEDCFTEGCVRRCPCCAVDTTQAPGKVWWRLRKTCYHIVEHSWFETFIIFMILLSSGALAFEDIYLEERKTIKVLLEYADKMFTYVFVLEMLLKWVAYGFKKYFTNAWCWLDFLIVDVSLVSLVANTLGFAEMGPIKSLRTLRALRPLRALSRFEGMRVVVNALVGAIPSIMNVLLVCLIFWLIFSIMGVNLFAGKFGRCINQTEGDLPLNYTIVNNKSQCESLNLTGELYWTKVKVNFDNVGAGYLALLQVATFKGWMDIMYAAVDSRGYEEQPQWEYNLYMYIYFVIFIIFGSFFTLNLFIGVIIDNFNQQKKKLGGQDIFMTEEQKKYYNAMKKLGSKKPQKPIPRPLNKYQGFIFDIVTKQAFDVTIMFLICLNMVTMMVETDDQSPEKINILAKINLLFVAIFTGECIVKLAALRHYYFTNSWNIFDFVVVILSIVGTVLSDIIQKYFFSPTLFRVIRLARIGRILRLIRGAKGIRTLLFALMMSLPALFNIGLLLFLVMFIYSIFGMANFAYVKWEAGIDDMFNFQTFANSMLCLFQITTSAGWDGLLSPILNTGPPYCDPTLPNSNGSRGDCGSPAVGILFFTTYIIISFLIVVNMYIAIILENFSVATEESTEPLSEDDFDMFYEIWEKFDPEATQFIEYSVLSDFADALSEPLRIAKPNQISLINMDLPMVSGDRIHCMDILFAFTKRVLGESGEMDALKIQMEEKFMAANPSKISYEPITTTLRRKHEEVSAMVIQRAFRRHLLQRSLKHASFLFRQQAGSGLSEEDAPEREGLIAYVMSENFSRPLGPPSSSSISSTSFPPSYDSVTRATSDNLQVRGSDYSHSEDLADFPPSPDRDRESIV
Chain of Voltage-gated inwardly rectifying potassium channel KCNH2 (Q12809 whole entry): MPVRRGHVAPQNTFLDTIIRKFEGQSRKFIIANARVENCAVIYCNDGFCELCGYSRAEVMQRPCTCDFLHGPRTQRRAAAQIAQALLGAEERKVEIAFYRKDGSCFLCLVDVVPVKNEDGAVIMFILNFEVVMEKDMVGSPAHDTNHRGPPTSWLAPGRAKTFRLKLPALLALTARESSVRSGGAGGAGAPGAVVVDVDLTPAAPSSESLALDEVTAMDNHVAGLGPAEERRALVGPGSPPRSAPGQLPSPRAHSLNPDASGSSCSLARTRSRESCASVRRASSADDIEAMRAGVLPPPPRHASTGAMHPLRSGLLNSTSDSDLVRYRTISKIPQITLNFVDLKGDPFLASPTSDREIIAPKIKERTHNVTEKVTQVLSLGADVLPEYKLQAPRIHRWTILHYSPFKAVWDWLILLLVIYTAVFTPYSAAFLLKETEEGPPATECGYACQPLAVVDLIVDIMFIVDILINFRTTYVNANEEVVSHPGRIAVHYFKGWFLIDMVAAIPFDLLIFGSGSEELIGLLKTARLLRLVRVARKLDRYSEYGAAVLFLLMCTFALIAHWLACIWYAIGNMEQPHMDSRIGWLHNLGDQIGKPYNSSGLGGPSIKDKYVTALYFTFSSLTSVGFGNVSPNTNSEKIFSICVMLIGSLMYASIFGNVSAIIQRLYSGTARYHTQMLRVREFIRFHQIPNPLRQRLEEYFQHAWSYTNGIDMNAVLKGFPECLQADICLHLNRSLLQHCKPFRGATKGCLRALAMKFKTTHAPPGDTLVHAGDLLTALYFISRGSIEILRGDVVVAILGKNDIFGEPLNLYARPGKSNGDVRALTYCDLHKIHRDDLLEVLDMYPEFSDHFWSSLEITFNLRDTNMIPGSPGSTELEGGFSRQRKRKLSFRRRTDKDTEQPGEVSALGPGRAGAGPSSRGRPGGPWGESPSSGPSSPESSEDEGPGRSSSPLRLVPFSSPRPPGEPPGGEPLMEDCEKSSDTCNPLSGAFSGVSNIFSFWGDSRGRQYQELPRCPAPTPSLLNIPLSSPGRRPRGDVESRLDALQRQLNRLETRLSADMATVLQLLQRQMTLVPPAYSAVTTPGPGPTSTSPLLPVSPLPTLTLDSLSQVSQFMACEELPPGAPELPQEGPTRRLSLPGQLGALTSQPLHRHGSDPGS
Chain of Potassium voltage-gated channel subfamily A member 5 (Homo sapiens) (P22460 whole entry): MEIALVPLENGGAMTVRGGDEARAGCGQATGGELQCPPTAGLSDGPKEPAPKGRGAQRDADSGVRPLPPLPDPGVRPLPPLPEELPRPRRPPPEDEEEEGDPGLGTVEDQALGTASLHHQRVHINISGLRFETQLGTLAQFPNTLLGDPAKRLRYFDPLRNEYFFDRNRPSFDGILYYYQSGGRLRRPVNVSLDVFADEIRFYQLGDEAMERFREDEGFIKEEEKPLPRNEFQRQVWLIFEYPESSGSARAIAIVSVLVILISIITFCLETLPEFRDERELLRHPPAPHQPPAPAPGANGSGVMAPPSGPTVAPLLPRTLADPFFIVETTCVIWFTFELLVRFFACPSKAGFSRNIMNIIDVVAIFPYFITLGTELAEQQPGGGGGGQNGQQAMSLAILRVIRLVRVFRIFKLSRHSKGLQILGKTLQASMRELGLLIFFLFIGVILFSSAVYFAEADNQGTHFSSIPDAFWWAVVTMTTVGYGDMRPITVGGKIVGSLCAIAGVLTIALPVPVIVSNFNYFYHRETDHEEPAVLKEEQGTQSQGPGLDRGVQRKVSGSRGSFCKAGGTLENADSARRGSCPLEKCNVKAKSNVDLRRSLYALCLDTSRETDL

CCc1nn(-c2ccc(C(=O)N[C@@H]3CCCc4cc(CN5CCCCC5)ccc43)cc2)c(=O)c2ccccc12
Ki [1]: 29 nM

O=C(N[C@@H]1CCCc2cc(CN3CCCCC3)ccc21)c1ccc(-n2nc(-c3ccccc3)c3ccccc3c2=O)cc1
Ki [1]: 418 nM

O=C(N[C@@H]1CCCc2cc(CN3CCCCC3)ccc21)c1cccc(-c2coc3ccccc3c2=O)c1
Ki [1]: 64 nM

O=C(Cc1ccc(C(=O)N[C@@H]2CCCc3cc(CN4CCCCC4)ccc32)cc1)c1ccccc1
Ki [1]: 296 nM

Cc1nn(-c2ccc(C(=O)N[C@@H]3CCCc4cc(CN5CCCCC5)ccc43)cc2)c(=O)c2ccccc12
Ki [1]: 35 nM | half-life [2]: 366 min | clearance [3]: 15 mL/min/kg | Vd [4]: 8.09 L/kg | bioavailability [5]: 51%

Cc1nn(-c2cccc(C(=O)N[C@@H]3CCCc4cc(CN5CCCCC5)ccc43)c2)c(=O)c2ccccc12
Ki [1]: 6370 nM

Cc1ccc(S(=O)(=O)N2CCNC(=O)[C@H]2CC(=O)N[C@@H]2CCCc3cc(CN4CCCCC4)ccc32)cc1
IC50 [6]: 4.1 nM | bioavailability [7]: 6% | clearance [8]: 123 mL/min/kg

Cc1nn(-c2ccc(C(=O)N[C@@H]3CCCc4cc(CN5CCCCC5)ccc43)cn2)c(=O)c2c(Cl)cccc12
Activity [9]: Not Active | Activity [10]: inactive | Activity [11]: Not Active

O=C(N[C@@H]1CCCc2cc(CN3CCCCC3)ccc21)c1cccc(-n2cnc3ccccc3c2=O)c1
Ki [1]: > 10000 nM

Cc1nn(-c2ccc(C(=O)N[C@@H]3CCCc4cc(CN5CCCCC5)ccc43)cc2)c(=O)c2c(Cl)cccc12
Ki [1]: 0.9 nM | IC50 [12]: 1 nM | IC50 [6]: 21.4 nM | half-life [2]: 624 min | clearance [3]: 11.2 mL/min/kg | Vd [4]: 7.85 L/kg | bioavailability [5]: 90% | half-life [13]: 534 min | clearance [14]: 19 mL/min/kg | Vd [15]: 10.6 L/kg | bioavailability [16]: 60%

Cc1nn(-c2ccc(C(=O)N[C@@H]3CCCc4cc(CN5CCCCC5)ccc43)cc2)c(=O)c2c(F)cccc12
Ki [1]: 1.9 nM

Cc1nn(-c2ccc(C(=O)N[C@@H]3CCCc4cc(CN5CCCCC5)ccc43)cn2)c(=O)c2c(F)cccc12
Ki [1]: 0.6 nM | IC50 [12]: 0.09 nM | IC50 [6]: 0.6 nM | half-life [2]: 198 min | clearance [3]: 23.5 mL/min/kg | Vd [4]: 6.45 L/kg | bioavailability [5]: 61% | fraction unbound [17]: 0.24 | IC50 [18]: 2.5 nM | Activity [9]: Not Active | Activity [10]: inactive | Activity [11]: Not Active | Activity [19]: Active | Activity [20]: Active

Cc1nn(-c2ccc(C(=O)N[C@@H]3CCCc4cc(CN5CCCCC5)ccc43)cn2)c(=O)c2c(F)ccc(F)c12
Ki [1]: 0.6 nM | IC50 [12]: 0.3 nM | IC50 [6]: 2.2 nM

O=C(N[C@@H]1CCCc2cc(CN3CCCCC3)ccc21)c1ccc(-n2cnc3ccccc3c2=O)cc1
Ki [1]: 614 nM

O=C(CCCCC(=O)c1ccccc1)N[C@@H]1CCCc2cc(CN3CCCCC3)ccc21
Ki [1]: 1680 nM | IC50 [21]: 1370 nM

Cc1nn(-c2ccc(C(=O)N[C@@H]3CCCc4cc(CN5CCCCC5)ccc43)cc2)c(=O)c2c(F)ccc(F)c12
Ki [1]: 3.5 nM
